According to patent US12281149B2, “Modulators of G-protein coupled receptors” (priority 2021, dated 2025):
*1 amine or outer side, *2 acyl side, *3 side chain or, on linkers, in order; H or OH if unused. Where a SMILES comes first, the peptide text is derived from it. Side-chain parts run from the residue outwards. [ ]: non-standard residue; d: D form. The star is where a group is joined. Isobutyryl(2-(3-CN-5-F-Ph)) = CC(C)(C(=O)*)c1cc(F)cc(C#N)c1; C20 diacid = O=C(O)CCCCCCCCCCCCCCCCCCC(=O)*; γGlu = O=C(O)[C@H](CCC(=O)[*:2])N[*:1]; X54 = Cc1cn(C(C)(C)C(=O)*)nc1C(F)(F)F; Phe(2-F) = N[C@@H](Cc1ccccc1F)C(=O)O; X58 = Cc1cc(F)cc(C(C)(C)C(=O)*)c1; X72 = CC(C)(C(=O)*)c1cccc(Cl)c1F; AEEA = NCCOCCOCC(=O)O; Aib = CC(C)(N)C(=O)O; βAla = NCCC(=O)O

What was measured:
Assay type in all cases: cell-based
GLP-1 receptor [1] = target: T1, GLP-1 receptor (Homo sapiens, UniProt P43220); assay: PathHunter β-arrestin assay, GLP-1 receptor; design: host or cells: PathHunter CHO-K1 GLP1R β-Arrestin Cell Line; details: β-arrestin-2 recruitment, PathHunter CHO-K1 GLP1R β-Arrestin Cell Line, 90 min at 37° C.; normalized to GLP-1; read-out: GLP-1R β Arrestin EC50
GIP receptor [2] = target: T2, GIP receptor (Homo sapiens, UniProt P48546); assay: PathHunter β-arrestin assay, GIP receptor; design: host or cells: PathHunter CHO-K1 GIPR β-Arrestin Cell Line; details: β-arrestin-2 recruitment, PathHunter CHO-K1 GIPR β-Arrestin Cell Line, 90 min at 37° C.; normalized to GIP; read-out: GIPR β Arrestin EC50
T2 sequence (P48546 22-466): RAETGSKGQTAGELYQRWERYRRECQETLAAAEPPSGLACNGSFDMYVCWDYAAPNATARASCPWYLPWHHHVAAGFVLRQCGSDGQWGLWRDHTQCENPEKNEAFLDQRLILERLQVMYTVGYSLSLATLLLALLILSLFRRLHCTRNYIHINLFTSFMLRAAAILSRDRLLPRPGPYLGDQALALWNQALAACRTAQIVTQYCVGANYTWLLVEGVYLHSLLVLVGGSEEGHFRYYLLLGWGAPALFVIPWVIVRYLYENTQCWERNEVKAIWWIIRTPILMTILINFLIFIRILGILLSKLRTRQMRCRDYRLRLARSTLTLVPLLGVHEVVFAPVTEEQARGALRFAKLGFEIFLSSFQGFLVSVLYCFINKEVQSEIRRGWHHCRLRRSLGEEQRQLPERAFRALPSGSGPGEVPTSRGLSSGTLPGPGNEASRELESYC

GLP-1 receptor [3] = target: T1, GLP-1 receptor; assay: HitHunter cAMP assay, GLP-1 receptor; details: for EC50: CHO cells stably expressing human GLP-1 receptor, cAMP accumulation, 30 min, read-out: EC50 GLP-1R; for Emax: CHO cells, cAMP, normalized to maximum signal from GLP-1 (high) and DMSO (low), read-out: Emax GLP-1R
Protocol: (§1) CAMP accumulation was measured in Chinese hamster ovary (CHO) cells stably expressing the human GLP-1 receptor or GIP receptor using the HitHunter CAMP Assay for Small Molecules Kit (Eurofins). Briefly, cells were grown in Ham's F12 Nutrient Mix with 10% FBS and lifted with Cell dissociation buffer, Enzyme free, PBS based (ThermoFisher). Cells were pelleted and resuspended in Hank's buffered saline solution with 10 mM Hepes and 625 μM 3-isobutyl-1-methylxanthine. The antibody reagent was then added to cells at a 1:2 ratio and 5 μL of mixture was seeded in 384-well small volume white assay plates, at 10,000 cells/well. Cells were then treated with 50 nl compound in DMSO using an ECHO 550 acoustic dispenser (Labcyte) in a 20-point dose response format in triplicate for 30 min. Cells were the lysed and detection reagents added according to the manufacturer's protocol. After overnight incubation, luminescence was measured using a Perkin Elmer Envision plate reader. Raw data was normalized to the maximum signal from GLP-1 or GIP (high) and DMSO (low). Dose response curves were analyzed using GraphPad Prism 9.0.

GIP receptor [4] = target: T2, GIP receptor; assay: HitHunter cAMP assay, GIP receptor; details: for EC50: CHO cells stably expressing GIP receptor, cAMP accumulation, 30 min, read-out: EC50 GIP-1R; for Emax: CHO cells, cAMP, normalized to maximum signal from GIP (high) and DMSO (low), read-out: Emax GIP-1R
Protocol: as §1

T1 sequence (P43220 24-463): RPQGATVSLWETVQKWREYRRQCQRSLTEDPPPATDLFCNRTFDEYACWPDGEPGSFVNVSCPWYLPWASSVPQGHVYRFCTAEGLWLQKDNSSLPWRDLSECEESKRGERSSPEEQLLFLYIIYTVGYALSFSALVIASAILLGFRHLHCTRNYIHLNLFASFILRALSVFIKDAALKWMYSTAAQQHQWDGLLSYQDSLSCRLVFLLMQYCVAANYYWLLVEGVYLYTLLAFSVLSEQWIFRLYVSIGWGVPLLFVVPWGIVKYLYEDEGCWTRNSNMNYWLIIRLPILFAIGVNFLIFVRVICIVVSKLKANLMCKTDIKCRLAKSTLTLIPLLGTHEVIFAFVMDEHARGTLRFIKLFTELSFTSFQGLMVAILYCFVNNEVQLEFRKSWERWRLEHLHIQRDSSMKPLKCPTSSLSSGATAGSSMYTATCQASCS

Row | SMILES | EC50 (GLP-1 receptor [1]) [nM] | EC50 (GIP receptor [2]) [nM] | EC50 (GLP-1 receptor [3]) [nM] | Emax (GLP-1 receptor [3]) [%] | EC50 (GIP receptor [4]) [nM] | Emax (GIP receptor [4]) [%]
1 | CC[C@H](C)[C@H](NC(=O)[C@H](CC(C)C)NC(=O)[C@H](Cc1c[nH]c2ccccc12)NC(=O)[C@H](CCC(N)=O)NC(=O)[C@@H](NC(=O)[C@H](Cc1ccccc1)NC(=O)[C@H](C)NC(=O)[C@H](CCCCNC(=O)COCCOCCNC(=O)COCCOCCNC(=O)CC[C@H](NC(=O)CCCCCCCCCCCCCCCCCCC(=O)O)C(=O)O)NC(=O)[C@H](CCC(N)=O)NC(=O)[C@H](C)NC(=O)[C@@H](NC(=O)[C@H](CCCCN)NC(=O)[C@H](CC(=O)O)NC(=O)[C@H](CC(C)C)NC(=O)C(C)(C)NC(=O)[C@@H](NC(=O)[C@H](CO)NC(=O)[C@H](Cc1ccc(O)cc1)NC(=O)[C@H](CC(=O)O)NC(=O)[C@H](CO)NC(=O)[C@@H](NC(=O)[C@H](Cc1ccccc1)NC(=O)[C@@H](NC(=O)CNC(=O)[C@H](CCC(=O)O)NC(=O)CCNC(=O)C(C)(C)n1cc(C)c(C(F)(F)F)n1)[C@@H](C)O)[C@@H](C)O)[C@@H](C)CC)[C@@H](C)CC)C(C)C)C(=O)N[C@@H](C)C(=O)NCC(=O)NCC(=O)N1CCC[C@H]1C(=O)N[C@@H](CO)C(=O)N[C@@H](CO)C(=O)NCC(=O)N[C@@H](C)C(=O)N1CCC[C@H]1C(=O)N1CCC[C@H]1C(=O)N1CCC[C@H]1C(=O)N[C@@H](CO)C(N)=O [Compound 158] ({X54-βAla}-EGTFTSDYSI[Aib]LDKIAQK([AEEA-AEEA-γGlu-C20 diacid])AFVQWLIAGGPSSGAPPPS-NH2) | > 1000 | > 1000 | 0.1 to 1 | 97 | 10 to 100 | 118
2 | CC[C@H](C)[C@H](NC(=O)[C@H](CC(C)C)NC(=O)[C@H](Cc1c[nH]c2ccccc12)NC(=O)[C@H](CCC(N)=O)NC(=O)[C@@H](NC(=O)[C@H](Cc1ccccc1)NC(=O)[C@H](C)NC(=O)[C@H](CCCCNC(=O)COCCOCCNC(=O)COCCOCCNC(=O)CC[C@H](NC(=O)CCCCCCCCCCCCCCCCCCC(=O)O)C(=O)O)NC(=O)[C@H](CCC(N)=O)NC(=O)[C@H](C)NC(=O)[C@@H](NC(=O)[C@H](CCCCN)NC(=O)[C@H](CC(=O)O)NC(=O)[C@H](CC(C)C)NC(=O)C(C)(C)NC(=O)[C@@H](NC(=O)[C@H](CO)NC(=O)[C@H](Cc1ccc(O)cc1)NC(=O)[C@H](CC(=O)O)NC(=O)[C@H](CO)NC(=O)[C@@H](NC(=O)[C@H](Cc1ccccc1)NC(=O)[C@@H](NC(=O)CNC(=O)[C@H](CCC(=O)O)NC(=O)CCNC(=O)C(C)(C)c1cccc(Cl)c1F)[C@@H](C)O)[C@@H](C)O)[C@@H](C)CC)[C@@H](C)CC)C(C)C)C(=O)N[C@@H](C)C(=O)NCC(=O)NCC(=O)N1CCC[C@H]1C(=O)N[C@@H](CO)C(=O)N[C@@H](CO)C(=O)NCC(=O)N[C@@H](C)C(=O)N1CCC[C@H]1C(=O)N1CCC[C@H]1C(=O)N1CCC[C@H]1C(=O)N[C@@H](CO)C(N)=O [Compound 219] ({X72-βAla}-EGTFTSDYSI[Aib]LDKIAQK([AEEA-AEEA-γGlu-C20 diacid])AFVQWLIAGGPSSGAPPPS-NH2) | > 1000 | < 1000 | < 0.1 | 104 | 0.1 to 1 | 106
3 | CC[C@H](C)[C@H](NC(=O)[C@H](CO)NC(=O)[C@H](Cc1ccc(O)cc1)NC(=O)[C@H](CC(=O)O)NC(=O)[C@H](CO)NC(=O)[C@@H](NC(=O)[C@H](Cc1ccccc1)NC(=O)[C@@H](NC(=O)CNC(=O)[C@H](CCC(=O)O)NC(=O)CCNC(=O)C(C)(C)c1cc(F)cc(C#N)c1)[C@@H](C)O)[C@@H](C)O)C(=O)N[C@@H](Cc1ccc(O)cc1)C(=O)N[C@@H](CC(C)C)C(=O)N[C@@H](CC(=O)O)C(=O)N[C@@H](CCCCN)C(=O)N[C@@H](CCC(N)=O)C(=O)N[C@@H](C)C(=O)N[C@@H](C)C(=O)N[C@@H](CCCCNC(=O)COCCOCCNC(=O)COCCOCCNC(=O)CC[C@H](NC(=O)CCCCCCCCCCCCCCCCCCC(=O)O)C(=O)O)C(=O)N[C@@H](CCC(=O)O)C(=O)N[C@@H](Cc1ccccc1)C(=O)N[C@H](C(=O)N[C@@H](CC(N)=O)C(=O)N[C@@H](Cc1c[nH]c2ccccc12)C(=O)N[C@@H](CC(C)C)C(=O)N[C@@H](CC(C)C)C(=O)N[C@@H](C)C(=O)NCC(=O)NCC(=O)N1CCC[C@H]1C(=O)N[C@@H](CO)C(=O)N[C@@H](CO)C(=O)NCC(=O)N[C@@H](C)C(=O)N1CCC[C@H]1C(=O)N1CCC[C@H]1C(=O)N1CCC[C@H]1C(=O)N[C@@H](CO)C(N)=O)C(C)C [Compound 184] | > 1000 | > 1000 | 1 to 10 | 99 | 100 to 1000 | 90
4 | CC[C@H](C)[C@H](NC(=O)[C@H](CC(C)C)NC(=O)[C@H](Cc1c[nH]c2ccccc12)NC(=O)[C@H](CCC(N)=O)NC(=O)[C@@H](NC(=O)[C@H](Cc1ccccc1)NC(=O)[C@H](C)NC(=O)[C@H](CCCCNC(=O)COCCOCCNC(=O)COCCOCCNC(=O)CC[C@H](NC(=O)CCCCCCCCCCCCCCCCCCC(=O)O)C(=O)O)NC(=O)[C@H](CCC(N)=O)NC(=O)[C@H](C)NC(=O)[C@@H](NC(=O)[C@H](CCCCN)NC(=O)[C@H](CC(=O)O)NC(=O)[C@H](CC(C)C)NC(=O)C(C)(C)NC(=O)[C@@H](NC(=O)[C@H](CO)NC(=O)[C@H](Cc1ccc(O)cc1)NC(=O)[C@H](CC(=O)O)NC(=O)[C@H](CO)NC(=O)[C@@H](NC(=O)[C@H](Cc1ccccc1)NC(=O)[C@@H](NC(=O)CNC(=O)[C@H](CCC(=O)O)NC(=O)CCNC(=O)C(C)(C)c1cc(C)cc(F)c1)[C@@H](C)O)[C@@H](C)O)[C@@H](C)CC)[C@@H](C)CC)C(C)C)C(=O)N[C@@H](C)C(=O)NCC(=O)NCC(=O)N1CCC[C@H]1C(=O)N[C@@H](CO)C(=O)N[C@@H](CO)C(=O)NCC(=O)N[C@@H](C)C(=O)N1CCC[C@H]1C(=O)N1CCC[C@H]1C(=O)N1CCC[C@H]1C(=O)N[C@@H](CO)C(N)=O [Compound 144] ({X58-βAla}-EGTFTSDYSI[Aib]LDKIAQK([AEEA-AEEA-γGlu-C20 diacid])AFVQWLIAGGPSSGAPPPS-NH2) | > 1000 | > 1000 | < 0.1 | 99 | 1 to 10 | 103
5 | CC[C@H](C)[C@H](NC(=O)[C@H](CC(C)C)NC(=O)[C@H](Cc1c[nH]c2ccccc12)NC(=O)[C@H](CCC(N)=O)NC(=O)[C@@H](NC(=O)[C@H](Cc1ccccc1)NC(=O)[C@H](C)NC(=O)[C@H](CCCCNC(=O)COCCOCCNC(=O)COCCOCCNC(=O)CC[C@H](NC(=O)CCCCCCCCCCCCCCCCCCC(=O)O)C(=O)O)NC(=O)[C@H](CCC(N)=O)NC(=O)[C@H](C)NC(=O)[C@@H](NC(=O)[C@H](CCCCN)NC(=O)[C@H](CC(=O)O)NC(=O)[C@H](CC(C)C)NC(=O)C(C)(C)NC(=O)[C@@H](NC(=O)[C@H](CO)NC(=O)[C@H](Cc1ccc(O)cc1)NC(=O)[C@H](CC(=O)O)NC(=O)[C@H](CO)NC(=O)[C@@H](NC(=O)[C@H](Cc1ccccc1F)NC(=O)[C@@H](NC(=O)CNC(=O)[C@H](CCC(=O)O)NC(=O)CCNC(=O)C(C)(C)c1cc(F)cc(C#N)c1)[C@@H](C)O)[C@@H](C)O)[C@@H](C)CC)[C@@H](C)CC)C(C)C)C(=O)N[C@@H](C)C(=O)NCC(=O)NCC(=O)N1CCC[C@H]1C(=O)N[C@@H](CO)C(=O)N[C@@H](CO)C(=O)NCC(=O)N[C@@H](C)C(=O)N1CCC[C@H]1C(=O)N1CCC[C@H]1C(=O)N1CCC[C@H]1C(=O)N[C@@H](CO)C(N)=O [Compound 233] ({Isobutyryl(2-(3-CN-5-F-Ph))-βAla}-EGT[Phe(2-F)]TSDYSI[Aib]LDKIAQK([AEEA-AEEA-γGlu-C20 diacid])AFVQWLIAGGPSSGAPPPS-NH2) | > 1000 | < 1000 | 0.1 to 1 | 121 | 0.1 to 1 | 109
